Test results as given in patent US20250296971A1, “GASTRIC INHIBITORY PEPTIDE RECEPTOR LIGANDS” (priority 2021, published 2025).
Where two headings read alike, the source gives them in different places. *1 amine or outer side, *2 acyl side, *3 side chain or, on linkers, in order; H or OH if unused. Where a SMILES comes first, the peptide text is derived from it. Bridges are numbered along the chain shown (N, C = ends). Side-chain parts run from the residue outwards. [ ]: non-standard residue; d: D form. The star is where a group is joined. X16 = NC(=O)[C@H](CCCCNC(=O)CN1CCN2CCN3CCN(CC1)CC(=O)[O][Lu]([O]C(=O)C2)[O]C(=O)C3)NC(=O)CCC(=O)NCCCOCCOCCOCCCN*; DOTA(Lu) = O=C1CN2CCN3CCN(CC(=O)*)CCN(CC2)CC(=O)[O][Lu]([O]1)[O]C(=O)C3; X18 = O=C(CCN(CC(=O)[*:2])[*:1])NC[C@H](O)[C@@H](O)[C@H](O)[C@H](O)CO; NH(1-deoxy-D-glucityl) = OC[C@@H](O)[C@@H](O)[C@H](O)[C@@H](O)CN*; Pro(trans-4-NH2) = O=C([C@@H]1C[C@@H](N[*:3])CN1[*:1])[*:2]; Trp(5-Cl) = N[C@@H](Cc1c[nH]c2ccc(Cl)cc12)C(=O)O; Pyridine(2,6-diCH2) = c1cc(C[*:1])nc(C[*:2])c1; X24 = OC[C@H](CSCc1cccc(C[*:1])n1)N[*:2]; 1Nal = N[C@@H](Cc1cccc2ccccc12)C(=O)O; mXylylene = c1cc(C[*:1])cc(C[*:2])c1; Glutaryl = O=C(CCCC(=O)[*:2])[*:1]; X6 = c1cc(CSCCN[*:2])nc(C[*:1])c1; Hyp = O=C(O)[C@@H]1C[C@@H](O)CN1; X1 = O=C(CN1CCC(N[*:1])CC1)[*:2]; Suc = O=C(CCC(=O)[*:2])[*:1]; Ac6c = NC1(C(=O)O)CCCCC1; Api = NC1(C(=O)O)CCNCC1; Thp = NC1(C(=O)O)CCOCC1; Nleu = CC(C)CNCC(=O)O; Aib = CC(C)(N)C(=O)O; Sar = CNCC(=O)O

Target: T1, GIPR (CHO-K1-hGIPR cells) (Homo sapiens, UniProt P48546)
T1 construct: host or cells: CHO-K1
T1 sequence (P48546 22-466): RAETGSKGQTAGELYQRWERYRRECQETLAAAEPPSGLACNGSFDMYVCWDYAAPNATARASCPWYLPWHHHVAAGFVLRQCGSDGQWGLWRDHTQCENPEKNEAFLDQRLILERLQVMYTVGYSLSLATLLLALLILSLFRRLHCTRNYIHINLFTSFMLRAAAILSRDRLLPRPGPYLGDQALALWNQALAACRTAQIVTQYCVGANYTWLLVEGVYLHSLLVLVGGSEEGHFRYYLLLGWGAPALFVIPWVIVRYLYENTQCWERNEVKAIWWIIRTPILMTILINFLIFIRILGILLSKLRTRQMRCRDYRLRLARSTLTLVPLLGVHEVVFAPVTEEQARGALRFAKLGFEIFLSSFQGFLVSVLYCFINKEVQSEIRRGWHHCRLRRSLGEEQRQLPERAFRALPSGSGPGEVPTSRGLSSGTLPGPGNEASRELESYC
Assay: FACS binding assay
Settings: competition with 20 nM GIP-057, 4° C., 1 hour
Procedure, shortened: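 Median fluorescence in the APC channel, measured on washed CHO-K1 cells overexpressing human GIPR, was fitted by four-parameter logistic regression against peptide concentration to yield EC50 or IC50 values. Secondary labelling used APC-streptavidin (1 μg/mL, 30 min, ice).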

[1] = read-out: pIC50 Category (converted)

SMILES	IC50 (pIC50 Category) [nM]	IC50 [1] [nM]
CC[C@H](C)[C@@H]1NC(=O)[C@H](CC(C)C)NC(=O)C2(CCN(C(=O)CN3CCN4CCN5CCN(CC3)CC(=O)[O][Lu]([O]C(=O)C5)[O]C(=O)C4)CC2)NC(=O)[C@@H](NC(=O)[C@@H](CC(C)C)NC(=O)[C@H](CCC(=O)O)NC(=O)[C@@H]2C[C@@H](O)CN2C(=O)[C@H](Cc2c[nH]c3ccc(Cl)cc23)NC(=O)[C@H](Cc2c[nH]c3ccccc23)NC(=O)CCC(=O)O)CSCc2cccc(n2)CSCCNC1=O [GIP-171, HO-Succinyl-Trp-5Clw-Hyp-Glu-leu-[Cys(2Lut)-Apc(LuDOTA)-Leu-Ile-AET]] (Suc-W[Trp(5-Cl)][Hyp]E[dL]C[Api](DOTA(Lu))LI; linker 6-C via X6)	< 10	–
CC[C@H](C)[C@@H]1NC(=O)[C@H](CC(C)C)NC(=O)C(C)(C)NC(=O)[C@@H](NC(=O)[C@@H](CC(C)C)NC(=O)[C@H](CCC(=O)O)NC(=O)[C@@H]2CCCN2C(=O)[C@H](Cc2cccc3ccccc23)NC(=O)[C@H](Cc2c[nH]c3ccccc23)NC(=O)[C@H](CC(=O)O)NC(C)=O)CSCc2cccc(c2)CSC[C@@H](C(=O)NCCCOCCOCCOCCCNC(=O)CCC(=O)N[C@@H](CCCCNC(=O)CN2CCN3CCN4CCN(CC2)CC(=O)[O][Lu]([O]C(=O)C3)[O]C(=O)C4)C(N)=O)NC1=O [GIP-172, Ac-Asp-Trp-1Ni-Pro-Glu-leu-[Cys(3MeBn)-Aib-Leu-Ile-Cys]-Ttds-Lys(LuDOTA)-NH2] (Ac-DW[1Nal]PE[dL]C[Aib]LIC-X16; linker 7-11 via mXylylene)	10 to 79.4	–
CC[C@H](C)[C@@H]1NC(=O)[C@H](CC(C)C)NC(=O)C2(CCCCC2)NC(=O)[C@@H](NC(=O)[C@@H](CC(C)C)NC(=O)[C@H](CCC(=O)O)NC(=O)[C@@H]2CCCN2C(=O)[C@H](Cc2cccc3ccccc23)NC(=O)[C@H](Cc2c[nH]c3ccccc23)NC(=O)[C@H](CC(=O)O)NC(C)=O)CSCc2cccc(c2)CSC[C@@H](C(=O)NCCCOCCOCCOCCCNC(=O)CCC(=O)N[C@@H](CCCCNC(=O)CN2CCN3CCN4CCN(CC2)CC(=O)[O][Lu]([O]C(=O)C3)[O]C(=O)C4)C(N)=O)NC1=O [GIP-173, Ac-Asp-Trp-1Ni-Pro-Glu-leu-[Cys(3MeBn)-Egz-Leu-Ile-Cys]-Ttds-Lys(LuDOTA)-NH2] (Ac-DW[1Nal]PE[dL]C[Ac6c]LIC-X16; linker 7-11 via mXylylene)	10 to 79.4	–
CC[C@H](C)[C@@H]1NC(=O)[C@H](CC(C)C)NC(=O)C2(CCOCC2)NC(=O)[C@@H](NC(=O)[C@@H](CC(C)C)NC(=O)[C@H](CCC(=O)O)NC(=O)[C@@H]2C[C@@H](O)CN2C(=O)[C@H](Cc2c[nH]c3ccc(Cl)cc23)NC(=O)[C@H](Cc2c[nH]c3ccccc23)NC(=O)[C@H](CC(=O)O)NC(=O)CCCC(=O)NC[C@H](O)[C@@H](O)[C@H](O)[C@H](O)CO)CSCc2cccc(n2)CSC[C@@H](C(=O)NC2CCN(CC(=O)N[C@H](CCC(=O)NC[C@H](O)[C@@H](O)[C@H](O)[C@H](O)CO)C(N)=O)CC2)NC1=O [GIP-174, AGLU-Glutar-Asp-Trp-5Clw-Hyp-Glu-leu-[Cys(2Lut)-Thp-Leu-Ile-Cys]-APAc-glu(AGLU)-NH2] ({NH(1-deoxy-D-glucityl)-Glutaryl}-DW[Trp(5-Cl)][Hyp]E[dL]C[Thp]LIC[X1][dE](NH(1-deoxy-D-glucityl))-NH2; linker 7-11 via Pyridine(2,6-diCH2))	–	< 10
CC[C@H](C)[C@@H]1NC(=O)[C@H](CC(C)C)NC(=O)C2(CCOCC2)NC(=O)[C@@H](NC(=O)[C@@H](CC(C)C)NC(=O)[C@H](CCC(=O)O)NC(=O)[C@@H]2C[C@@H](NC(=O)CCCC(=O)NC[C@H](O)[C@@H](O)[C@H](O)[C@H](O)CO)CN2C(=O)[C@H](Cc2c[nH]c3ccc(Cl)cc23)NC(=O)[C@H](Cc2c[nH]c3ccccc23)NC(=O)[C@H](CC(=O)O)NC(C)=O)CSCc2cccc(n2)CSC[C@@H](C(N)=O)NC1=O [GIP-175, Ac-Asp-Trp-5Clw-Tap (AGLU-Glutar)-Glu-leu-[Cys(2Lut)-Thp-Leu-Ile-Cys]-NH2] (Ac-DW[Trp(5-Cl)][Pro(trans-4-NH2)]([Glutaryl-NH(1-deoxy-D-glucityl)])E[dL]C[Thp]LIC-NH2; linker 7-11 via Pyridine(2,6-diCH2))	–	< 10
CC[C@H](C)[C@@H]1NC(=O)[C@H](CC(C)C)NC(=O)C2(CCOCC2)NC(=O)[C@@H](NC(=O)[C@@H](CC(C)C)NC(=O)[C@H](CCC(=O)O)NC(=O)CN(CCC(=O)NC[C@H](O)[C@@H](O)[C@H](O)[C@H](O)CO)C(=O)[C@H](Cc2c[nH]c3ccc(Cl)cc23)NC(=O)[C@H](Cc2c[nH]c3ccccc23)NC(=O)[C@H](CC(=O)O)NC(C)=O)CSCc2cccc(n2)CSC[C@@H](C(N)=O)NC1=O [GIP-176, Ac-Asp-Trp-5Clw-Nglu(AGLU)-Glu-leu-[Cys(2Lut)-Thp-Leu-Ile-Cys]-NH2] (Ac-DW[Trp(5-Cl)][X18]E[dL]C[Thp]LIC-NH2; linker 7-11 via Pyridine(2,6-diCH2))	–	< 10
CC[C@H](C)[C@@H]1NC(=O)[C@H](CC(C)C)NC(=O)C2(CCOCC2)NC(=O)[C@@H](NC(=O)[C@@H](CC(C)C)NC(=O)[C@H](CCC(=O)O)NC(=O)[C@@H]2C[C@@H](O)CN2C(=O)[C@H](Cc2c[nH]c3ccc(Cl)cc23)NC(=O)[C@H](Cc2c[nH]c3ccccc23)NC(=O)[C@H](CC(=O)O)NC(C)=O)CSCc2cccc(n2)CSC[C@@H](C(=O)NC2CCN(CC(=O)N[C@H](CCC(=O)NC[C@H](O)[C@@H](O)[C@H](O)[C@H](O)CO)C(N)=O)CC2)NC1=O [GIP-177, Ac-Asp-Trp-5Clw-Hyp-Glu-leu-[Cys(2Lut)-Thp-Leu-Ile-Cys]-APAc-glu(AGLU)-NH2] (Ac-DW[Trp(5-Cl)][Hyp]E[dL]C[Thp]LIC[X1][dE](NH(1-deoxy-D-glucityl))-NH2; linker 7-11 via Pyridine(2,6-diCH2))	–	< 10
CC[C@H](C)[C@@H]1NC(=O)[C@H](CC(C)C)NC(=O)C2(CCOCC2)NC(=O)[C@@H](NC(=O)[C@@H](CC(C)C)NC(=O)[C@H](CCC(=O)O)NC(=O)[C@@H]2C[C@@H](O)CN2C(=O)[C@H](Cc2c[nH]c3ccc(Cl)cc23)NC(=O)[C@H](Cc2c[nH]c3ccccc23)NC(=O)[C@H](CC(=O)O)NC(=O)CCCC(=O)NC[C@H](O)[C@@H](O)[C@H](O)[C@H](O)CO)CSCc2cccc(n2)CSC[C@@H](C(N)=O)NC1=O [GIP-178, AGLU-Glutar-Asp-Trp-5Clw-Hyp-Glu-leu-[Cys(2Lut)-Thp-Leu-Ile-Cys]-NH2] ({NH(1-deoxy-D-glucityl)-Glutaryl}-DW[Trp(5-Cl)][Hyp]E[dL]C[Thp]LIC-NH2; linker 7-11 via Pyridine(2,6-diCH2))	–	< 10
CC[C@H](C)[C@@H]1NC(=O)[C@H](CC(C)C)NC(=O)C2(CCOCC2)NC(=O)[C@@H](NC(=O)[C@@H](CC(C)C)NC(=O)[C@H](CCC(=O)O)NC(=O)[C@@H]2C[C@@H](O)CN2C(=O)[C@H](Cc2c[nH]c3ccc(Cl)cc23)NC(=O)[C@H](Cc2c[nH]c3ccccc23)NC(=O)[C@H](CC(=O)O)NC(C)=O)CSCc2cccc(n2)CSC[C@@H](C(N)=O)NC1=O [GIP-180, Ac-Asp-Trp-5Clw-Hyp-Glu-leu-[Cys(2Lut)-Thp-Leu-Ile-Cys]-NH2] (Ac-DW[Trp(5-Cl)][Hyp]E[dL]C[Thp]LIC-NH2; linker 7-11 via Pyridine(2,6-diCH2))	–	< 10
CC[C@H](C)[C@@H]1NC(=O)[C@H](CC(C)C)NC(=O)C2(CCOCC2)NC(=O)[C@@H](NC(=O)[C@@H](CC(C)C)NC(=O)[C@H](CCC(=O)O)NC(=O)[C@@H]2C[C@@H](O)CN2C(=O)[C@H](Cc2c[nH]c3ccc(Cl)cc23)NC(=O)[C@H](Cc2c[nH]c3ccccc23)NC(=O)[C@H](CC(=O)O)NC(C)=O)CSCc2cccc(n2)CSC[C@@H](CO)NC1=O [GIP-182, Ac-Asp-Trp-5Clw-Hyp-Glu-leu-[Cys(2Lut)-Thp-Leu-Ile-Cysol]-OH] (Ac-DW[Trp(5-Cl)][Hyp]E[dL]C[Thp]LI; linker 7-C via X24)	–	< 10
CC[C@H](C)[C@@H]1NC(=O)[C@H](CC(C)C)NC(=O)C2(CCOCC2)NC(=O)[C@@H](NC(=O)[C@@H](CC(C)C)NC(=O)[C@H](CCC(=O)O)NC(=O)CN(C)C(=O)[C@H](Cc2c[nH]c3ccc(Cl)cc23)NC(=O)[C@H](Cc2c[nH]c3ccccc23)NC(=O)[C@H](CC(=O)O)NC(C)=O)CSCc2cccc(n2)CSC[C@@H](C(N)=O)NC1=O [GIP-183, Ac-Asp-Trp-5Clw-Nmg-Glu-leu-[Cys(2Lut)-Thp-Leu-Ile-Cys]-NH2] (Ac-DW[Trp(5-Cl)][Sar]E[dL]C[Thp]LIC-NH2; linker 7-11 via Pyridine(2,6-diCH2))	–	< 10
CC[C@H](C)[C@@H]1NC(=O)[C@H](CC(C)C)NC(=O)C2(CCOCC2)NC(=O)[C@@H](NC(=O)[C@@H](CC(C)C)NC(=O)[C@H](CCC(=O)O)NC(=O)CN(CC(C)C)C(=O)[C@H](Cc2c[nH]c3ccc(Cl)cc23)NC(=O)[C@H](Cc2c[nH]c3ccccc23)NC(=O)[C@H](CC(=O)O)NC(C)=O)CSCc2cccc(n2)CSC[C@@H](C(N)=O)NC1=O [GIP-184, Ac-Asp-Trp-5Clw-Nleu-Glu-leu-[Cys(2Lut)-Thp-Leu-Ile-Cys]-NH2] (Ac-DW[Trp(5-Cl)][Nleu]E[dL]C[Thp]LIC-NH2; linker 7-11 via Pyridine(2,6-diCH2))	–	< 10
